Values of other authors as cited in patent US6415234B1, “Designing inhibitors for glycosyltransferases” (Glyco Design Inc., priority 1998, dated 2002).

Conditions: polarised continuum model

Structure (SMILES): O=P(O)(O)OP(=O)(O)O [pyrophosphate dianion]
- solvation free energy in water: -195.8 kcal/mol
